The source of these data is article PMC10100968, “The Role of Glutamine Synthetase in Regulating Ammonium Assimilation and Iron-Only Nitrogenase Expression in a Photosynthetic Diazotroph” (Microbiology Spectrum, 2023).

The target of experiment [1] is T1, GlnA1 (Rhodopseudomonas palustris, UniProt Q6N5K7).
T1 construct: gene glnA; GSI dodecamer; adenylylated at Tyr398 when made in nitrogen-replete medium
As to the kind of experiment: gamma-glutamylhydroxamate formation, absorbance at […] nm. It counts as biochemical. To be noted: 10 mM ATP, 40 mM MgSO4, 10 mM cysteine, 1 mM EDTA, pH 7.5, 30 °C, deadenylylated enzyme from nitrogen-limited cells.

Experiment [2] concerns the target T2, GlnA1 (Rhodopseudomonas palustris, UniProt Q6N5K7, Y398A).
T2 construct: gene glnA; GSI dodecamer; adenylylated at Tyr398 when made in nitrogen-replete medium
The description is as above. It counts as biochemical. The settings on record: 10 mM ATP, 40 mM hydroxylamine, 40 mM MgSO4, 10 mM cysteine, 1 mM EDTA, pH 7.5, 30 °C; enzyme from LB-grown cells.

T1 sequence (Q6N5K7 entry or part of it): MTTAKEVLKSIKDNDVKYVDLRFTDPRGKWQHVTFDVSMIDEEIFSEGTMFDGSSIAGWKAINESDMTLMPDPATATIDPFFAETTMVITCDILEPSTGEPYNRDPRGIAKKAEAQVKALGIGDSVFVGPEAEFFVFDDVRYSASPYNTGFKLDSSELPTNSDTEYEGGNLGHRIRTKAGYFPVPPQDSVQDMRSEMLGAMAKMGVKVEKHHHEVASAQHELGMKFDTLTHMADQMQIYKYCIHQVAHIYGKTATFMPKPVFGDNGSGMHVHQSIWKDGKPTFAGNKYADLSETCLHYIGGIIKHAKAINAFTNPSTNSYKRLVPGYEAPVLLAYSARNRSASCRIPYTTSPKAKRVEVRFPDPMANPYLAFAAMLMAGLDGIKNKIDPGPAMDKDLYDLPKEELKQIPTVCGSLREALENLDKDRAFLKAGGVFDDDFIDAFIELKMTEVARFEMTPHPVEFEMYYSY
T2 sequence (Q6N5K7 entry or part of it Y398A): as the sequence (Q6N5K7 entry or part of it) above, with Y398A counted along it

Turning to `NO` [hydroxylamine], the specific activity entry on GlnA1 [1] (10 mM L-glutamate) is reported as “A large proportion of GlnA1 was deadenylated via mass spectrometric analysis”.

`N[C@@H](CCC(=O)O)C(=O)O` [l-glutamate]: the specific activity entry was “GlnA1^Y398A purified from E. coli cells that were grown in LB medium showed a significantly” at GlnA1 [2] and “A large proportion of GlnA1 was deadenylated via mass spectrometric analysis” on GlnA1 [1] (40 mM hydroxylamine).
